Isoelectric point data for one substance are collected here from patent US5354843A, “Flanking peptides of calcitonin and processes for their manufacture” (Ciba-Geigy Corporation, priority 1988, dated 1994).

The nature of the data set: isoelectric point. It counts as physicochemical. The source says: FAB-MS: MH^+ 6220 (calculated molecular weight: 6220), isoelectric point: 4.2 (calculated: 4.04).

As for “human procalcitonin amino-terminal flanking peptide [PCATFP]”, the isoelectric point is 4.2.
